In PubChem BioAssay (NCI):
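Cells were grown in 96-well plates and exposed to each compound for 48 hours at five concentrations; endpoints were interpolated linearly between bracketing concentrations, or set to the highest concentration if not reached. Here, GI50 denotes the concentration required for 50% inhibition of growth. TGI marks complete inhibition of growth.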

Tests used:
Test in all cases: inhibition of tumour cell growth, NCI panel, 48 h
[1] = test system: CCRF-CEM leukemia
[2] = test system: M14 melanoma
[3] = test system: SF-539 CNS
[4] = test system: IGROV1 ovarian
[5] = test system: RPMI-8226 leukemia
[6] = test system: EKVX NSCLC
[7] = test system: MOLT-4 leukemia
[8] = test system: HOP-92 NSCLC
[9] = test system: DLD-1 colon
[10] = test system: SW-620 colon
[11] = test system: NCI-H522 lung
[12] = test system: OVCAR-4 ovarian
[13] = test system: NCI-H460 lung
[14] = test system: K-562 leukemia
[15] = test system: HT29 colon
[16] = test system: RXF 393 renal
[17] = test system: LXFL 529 NSCLC
[18] = test system: SK-OV-3 ovarian
[19] = test system: TK-10 renal
[20] = test system: OVCAR-8 ovarian
[21] = test system: A549 NSCLC
[22] = test system: CAKI-1 renal
[23] = test system: UACC-257 melanoma
[24] = test system: DMS 114 small cell lung
[25] = test system: UACC-62 melanoma
[26] = test system: COLO 205 colon
[27] = test system: NCI-H23 lung
[28] = test system: SK-MEL-5 melanoma
[29] = test system: KM12 colon
[30] = test system: LOX IMVI melanoma
[31] = test system: SNB-78 CNS
[32] = test system: SK-MEL-28 melanoma
[33] = test system: OVCAR-3 ovarian
[34] = test system: NCI-H226 lung
[35] = test system: DMS 273 small cell lung
[36] = test system: HCC-2998 colon
[37] = test system: HL-60(TB) leukemia
[38] = test system: SNB-19 CNS
[39] = test system: SNB-75 CNS
[40] = test system: U251 CNS
[41] = test system: HS 578T breast
[42] = test system: SF-268 CNS
[43] = test system: SN12C renal
[44] = test system: A498 renal
[45] = test system: UO-31 renal
[46] = test system: HCT-15 colon
[47] = test system: MDA-N
[48] = test system: 786-0 renal
[49] = test system: MDA-MB-435
[50] = test system: DU-145 prostate
[51] = test system: OVCAR-5 ovarian
[52] = test system: ACHN renal
[53] = test system: MDA-MB-231 breast
[54] = test system: BT-549 breast
[55] = test system: MCF7 breast
[56] = test system: MALME-3M melanoma
[57] = test system: NCI/ADR-RES ovarian
[58] = test system: HOP-62 NSCLC
[59] = test system: T-47D breast
[60] = test system: PC-3 prostate
[61] = test system: SR leukemia
[62] = test system: SK-MEL-2 melanoma
[63] = test system: SF-295 CNS
[64] = test system: HCT-116 colon

## CCSc1nc2cccc([N+](=O)[O-])c2n1CC
[1]
  TGI: > 100 µM
[2]
  TGI: > 100 µM
[3]
  TGI: > 100 µM
[4]
  TGI: > 100 µM
[5]
  TGI: > 100 µM
[6]
  TGI: > 100 µM
[7]
  TGI: > 100 µM
[8]
  TGI: > 100 µM
[9]
  TGI: > 100 µM
[10]
  TGI: > 100 µM
[11]
  TGI: > 100 µM
[12]
  TGI: > 100 µM
[13]
  TGI: > 100 µM
[14]
  TGI: > 100 µM
[15]
  TGI: > 100 µM
[16]
  TGI: > 100 µM
[17]
  TGI: > 100 µM
[18]
  TGI: > 100 µM
[19]
  TGI: > 100 µM
[20]
  TGI: > 100 µM
[21]
  TGI: > 100 µM
[22]
  TGI: > 100 µM
[23]
  TGI: > 100 µM
[24]
  TGI: > 100 µM
[25]
  TGI: > 100 µM
[26]
  TGI: > 100 µM
[27]
  TGI: > 100 µM
[28]
  TGI: > 100 µM
[29]
  TGI: > 100 µM
[30]
  TGI: > 100 µM
[31]
  TGI: > 100 µM
[32]
  TGI: > 100 µM
[33]
  TGI: > 100 µM
[34]
  TGI: > 100 µM
[35]
  TGI: > 100 µM
[36]
  TGI: > 100 µM
[37]
  TGI: > 100 µM
[38]
  TGI: > 100 µM
[39]
  TGI: > 100 µM
[40]
  TGI: > 100 µM

## CCCNC(=O)CCC(C)C1CCC2C3C(C[C@H](OC(C)=O)[C@]12C)[C@@]1(C)CCC2(C[C@H]1C[C@H]3OC(C)=O)OOC1(CC[C@]3(C)C4C[C@H](OC(C)=O)[C@]5(C)C(C(C)CCC(=O)NCCC)CCC5C4[C@H](OC(C)=O)C[C@@H]3C1)OO2 (stereo partly drawn)
[41]
  TGI: 98.2 µM
[1]
  TGI: > 100 µM
[2]
  TGI: > 100 µM
[42]
  TGI: > 100 µM
[3]
  GI50: > 82.2 µM
  TGI: > 100 µM
[4]
  TGI: > 100 µM
[43]
  TGI: > 100 µM
[5]
  TGI: > 100 µM
[44]
  TGI: > 100 µM
[6]
  TGI: > 100 µM
[7]
  TGI: > 100 µM
[8]
  GI50: 7.51 µM
  TGI: > 68.4 µM
[45]
  TGI: 3.31 µM
[10]
  TGI: > 100 µM
[46]
  TGI: > 100 µM
[47]
  TGI: > 100 µM
[11]
  TGI: > 100 µM
[48]
  TGI: > 100 µM
[12]
  TGI: > 100 µM
[49]
  TGI: > 100 µM
[13]
  TGI: > 100 µM
[50]
  TGI: > 100 µM
[14]
  TGI: > 100 µM
[15]
  TGI: > 100 µM
[16]
  TGI: > 87.1 µM
[51]
  TGI: > 100 µM
[18]
  TGI: > 100 µM
[19]
  TGI: > 100 µM
[20]
  TGI: > 93.9 µM
[21]
  TGI: > 100 µM
[22]
  TGI: > 100 µM
[23]
  TGI: > 100 µM
[52]
  TGI: > 82.2 µM
[25]
  GI50: > 67 µM
  TGI: > 100 µM
[26]
  TGI: > 100 µM
[53]
  TGI: > 83.4 µM
[54]
  TGI: > 100 µM
[55]
  TGI: > 100 µM
[27]
  TGI: > 100 µM
[56]
  TGI: > 100 µM
[28]
  TGI: > 100 µM
[29]
  TGI: > 100 µM
[30]
  TGI: > 100 µM
[57]
  TGI: > 100 µM
[32]
  TGI: > 100 µM
[58]
  TGI: > 100 µM
[59]
  GI50: > 100 µM
  TGI: > 100 µM
[60]
  TGI: > 100 µM
[33]
  TGI: > 100 µM
[61]
  TGI: > 100 µM
[34]
  TGI: > 84.7 µM
[62]
  TGI: > 100 µM
[63]
  TGI: > 100 µM
[36]
  TGI: > 100 µM
[64]
  TGI: > 100 µM
[37]
  TGI: > 100 µM
[38]
  TGI: > 100 µM
[39]
  TGI: > 69.5 µM
[40]
  TGI: > 100 µM
